Laboratory results from patent US20240358665A1, “SMALL MOLECULE MELPHALAN HYDROGEL AND METHOD FOR PREPARING THE SAME” (Changzhi Medical College, priority 2024, published 2024).

Experiment: Change of transmittance over time at 790 nm (ultraviolet spectrophotometer)
Assay type: physicochemical
Conditions: melphalan dissolved in physiological saline (FIG. 5: 0.9% NaCl, content 2%)
Method: The small molecule melphalan hydrogels prepared in Embodiments 1 to 3 of the present disclosure are tested for transmittance, and the specific testing steps are as follows: • Prepare small molecule melphalan solutions according to the methods in Embodiments 1 to 3 above, take 3 mL of the solution and place it in a glass dish, and place the glass dish in an ultraviolet spectrophotometer, and measure the change of transmittance over time, at 790 nm. The phenomenon that the transmittance gradually decreases from 100% (solution state) to less than 10% proves that the small molecule melphalan solution is transformed into a hydrogel.

With `N[C@@H](Cc1ccc(N(CCCl)CCCl)cc1)C(=O)O` [melphalan, Melphalan] the “transmittance after gelation (falls from 100% in solution state)” value was “less than 10%”.
